The record followed here is ChEMBL document CHEMBL4834397 (J Med Chem, 2021).

pIC50: −log10 of the molar value. Converted amounts (≈) assume the structure as drawn.

A short description of data set [1]: Solubility of compound in aqueous buffer at pH 6.8 by HPLC analysis. Type of data set: physicochemical.
A short description of data set [2]: Half life in rat liver microsomes in presence of NADPH. Format: ADME, Microsome.
The target of data set [3] is Voltage-gated inwardly rectifying potassium channel KCNH2 (Homo sapiens, UniProt Q12809). The experiment in a line: Displacement of [3H]dofetilide from recombinant human ERG stably expressed in HEK293 cell membranes measured after 90 mins by microbeta liquid scintillation counting method. Details: species or system Cell membrane.
Another data set addresses Cytochrome P450 2C9 (Homo sapiens, UniProt P11712). The experiment in a line: Reversible inhibition of CYP2C9 in human liver microsomes using […] as substrate incubated for 10 mins in presence of NADPH by LC-MS analysis. Type of data set: ADME.
In another data set the target is Cytochrome P450 2D6 (Homo sapiens, UniProt P10635). The experiment in a line: Reversible inhibition of CYP2D6 in human liver microsomes using […] as substrate incubated for 10 mins in presence of NADPH by LC-MS analysis. Format: ADME.
For the next data set, the target named is Cytochrome P450 3A5 (Homo sapiens, UniProt P20815). The experiment in a line: Reversible inhibition of CYP3A5 in human liver microsomes using midazolam as substrate incubated for 10 mins in presence of NADPH by LC-MS analysis. Format: ADME. In general terms: Liver microsomes are a subcellular fraction often used to study metabolism.
For data set [4], the target named is T1, Leukotriene A-4 hydrolase (Homo sapiens) (UniProt P09960).
T1 sequence (whole entry): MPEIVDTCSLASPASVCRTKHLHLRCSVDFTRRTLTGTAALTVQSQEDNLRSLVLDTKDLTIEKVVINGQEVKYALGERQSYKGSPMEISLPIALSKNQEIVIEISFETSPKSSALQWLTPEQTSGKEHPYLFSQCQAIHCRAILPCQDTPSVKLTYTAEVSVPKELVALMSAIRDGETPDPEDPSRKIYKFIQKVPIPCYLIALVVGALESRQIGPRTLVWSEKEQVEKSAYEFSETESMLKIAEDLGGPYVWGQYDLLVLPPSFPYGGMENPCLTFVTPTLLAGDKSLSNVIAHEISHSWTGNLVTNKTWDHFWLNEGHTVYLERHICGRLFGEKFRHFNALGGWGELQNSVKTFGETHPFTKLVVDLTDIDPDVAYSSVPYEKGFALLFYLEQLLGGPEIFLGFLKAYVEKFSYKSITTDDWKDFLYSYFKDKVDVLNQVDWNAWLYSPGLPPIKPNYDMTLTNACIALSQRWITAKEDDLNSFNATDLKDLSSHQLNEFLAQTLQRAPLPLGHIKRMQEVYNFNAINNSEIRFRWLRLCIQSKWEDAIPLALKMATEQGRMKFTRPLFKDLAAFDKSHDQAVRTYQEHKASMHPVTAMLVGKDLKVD
The settings on record: Blood, time 19.0 hrs.

Data set [5] deals with T1, Leukotriene A-4 hydrolase (Homo sapiens). The settings on record: PBMC, time 6.0 hrs.
Data set [6] has as its target T2, Leukotriene A-4 hydrolase (Homo sapiens, UniProt P09960).
T2 sequence (P09960 whole entry): T1 sequence (whole entry)
In words: Inhibition of LTA4H in human whole blood assessed as reduction of calcium ionophore A23187-stimulated LTB4 generation preincubated for 4 hrs followed by ionophore stimulation and measured after 15 hrs by EIA assay. Type of data set: tissue-based.

Data set [7] addresses T2, Leukotriene A-4 hydrolase. In words: Inhibition of LTA4H in human PBMC assessed as reduction of calcium ionophore A23187-stimulated LTB4 generation preincubated for 4 hrs followed by ionophore stimulation and measured after 2 hrs by EIA assay. Type of data set: tissue-based.
Data set [8] concerns the target T2, Leukotriene A-4 hydrolase. In words: Inhibition of recombinant full length N-terminal His6-tagged LTA4H (unknown origin) expressed in Escherichia coli BL21 DE3 cells at enzyme concentration <1 nM using Arg-AMC as substrate preincubated for 15 mins followed by substrate addition and measured every 10 mins for 300 mins by fluorescence based assay.
Data set [9] is described as follows: Drug concentration in blood isolated from C57/BL6 mouse at 0.625 mg/kg, po BID for 3 days measured after 2 hrs post last dose. Type of data set: ADME, organism-based. To be noted: time 3 day, read-out: Ct.
Data set [10] in a line: Drug concentration in blood isolated from C57/BL6 mouse at […], po BID for 3 days measured after 2 hrs post last dose. To be noted: dose 2.5 mg/kg, time 3 day, read-out: Ct. Format: ADME, organism-based.
A short description of data set [11]: Drug concentration in blood isolated from C57/BL6 mouse at 10 mg/kg, po BID for 3 days measured after 2 hrs post last dose. Type of data set: ADME, organism-based. To be noted: time 3 day, read-out: Ct.
Data set [12] can be described thus: Drug concentration in plasma isolated from C57/BL6 mouse at 0.625 mg/kg, po BID for 3 days measured after 2 hrs post last dose. Format: ADME, organism-based. The settings on record: time 3 day.
The nature of data set [13]: Drug concentration in plasma isolated from C57/BL6 mouse at […], po BID for 3 days measured after 2 hrs post last dose. Format: ADME, organism-based. The settings on record: dose 2.5 mg/kg, time 3 day.
The nature of data set [14]: Drug concentration in plasma isolated from C57/BL6 mouse at 10 mg/kg, po BID for 3 days measured after 2 hrs post last dose. Type of data set: ADME, organism-based. The settings on record: time 3 day.
The nature of data set [15]: Drug concentration in blood isolated from C57/BL6 mouse at 0.625 mg/kg, po BID for 3 days measured after 14 hrs post last dose. Format: ADME, organism-based. The settings on record: time 3 day, read-out: Ct.
The nature of data set [16]: Drug concentration in blood isolated from C57/BL6 mouse at […], po BID for 3 days measured after 14 hrs post last dose. Format: ADME, organism-based. To be noted: dose 2.5 mg/kg, time 3 day, read-out: Ct.
Data set [17] can be described thus: Drug concentration in blood isolated from C57/BL6 mouse at 10 mg/kg, po BID for 3 days measured after 14 hrs post last dose. Type of data set: ADME, organism-based. To be noted: time 3 day, read-out: Ct.
Data set [18] is described as follows: Drug concentration in plasma isolated from C57/BL6 mouse at 0.625 mg/kg, po BID for 3 days measured after 14 hrs post last dose. To be noted: time 3 day. Type of data set: ADME, organism-based.
Data set [19] is described as follows: Drug concentration in plasma isolated from C57/BL6 mouse at […], po BID for 3 days measured after 14 hrs post last dose. Format: ADME, organism-based. The settings on record: dose 2.5 mg/kg, time 3 day.
A short description of data set [20]: Drug concentration in plasma isolated from C57/BL6 mouse at 10 mg/kg, po BID for 3 days measured after 14 hrs post last dose. Format: ADME, organism-based. The settings on record: time 3 day.
Data set [21] deals with T2, Leukotriene A-4 hydrolase. In words: Inhibition of recombinant full length N-terminal His6-tagged LTA4H (unknown origin) expressed in Escherichia coli BL21 DE3 cells at enzyme concentration 9 nM using Arg-AMC as substrate preincubated for 15 mins followed by substrate addition and measured every 10 mins for 300 mins by fluorescence based assay.
The target of data set [22] is T1, Leukotriene A-4 hydrolase (Homo sapiens). The settings on record: dose 125.0 µM, time 30.0 min.
Data set [23] shares this target. To be noted: dose 250.0 µM, time 30.0 min.
Data set [24] has the same target. To be noted: dose 500.0 µM, time 30.0 min.
Data set [25] shares this target. The settings on record: dose 1000.0 µM, time 30.0 min.

Cytochrome P450 2D6, sequence (P10635 whole entry): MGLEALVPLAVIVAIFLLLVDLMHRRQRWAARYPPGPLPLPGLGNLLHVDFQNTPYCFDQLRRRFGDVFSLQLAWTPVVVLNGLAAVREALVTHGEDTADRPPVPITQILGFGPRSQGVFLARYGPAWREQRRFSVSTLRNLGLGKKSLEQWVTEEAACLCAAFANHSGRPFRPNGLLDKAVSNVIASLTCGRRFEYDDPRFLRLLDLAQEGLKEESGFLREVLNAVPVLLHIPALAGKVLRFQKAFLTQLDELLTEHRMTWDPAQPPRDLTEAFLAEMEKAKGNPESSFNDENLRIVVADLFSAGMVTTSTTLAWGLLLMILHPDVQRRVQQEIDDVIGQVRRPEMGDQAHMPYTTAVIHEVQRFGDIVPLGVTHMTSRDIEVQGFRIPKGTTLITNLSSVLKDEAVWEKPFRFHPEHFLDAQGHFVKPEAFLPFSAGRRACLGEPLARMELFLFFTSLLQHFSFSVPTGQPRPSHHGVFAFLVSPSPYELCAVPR
Cytochrome P450 2C9, sequence (P11712 whole entry): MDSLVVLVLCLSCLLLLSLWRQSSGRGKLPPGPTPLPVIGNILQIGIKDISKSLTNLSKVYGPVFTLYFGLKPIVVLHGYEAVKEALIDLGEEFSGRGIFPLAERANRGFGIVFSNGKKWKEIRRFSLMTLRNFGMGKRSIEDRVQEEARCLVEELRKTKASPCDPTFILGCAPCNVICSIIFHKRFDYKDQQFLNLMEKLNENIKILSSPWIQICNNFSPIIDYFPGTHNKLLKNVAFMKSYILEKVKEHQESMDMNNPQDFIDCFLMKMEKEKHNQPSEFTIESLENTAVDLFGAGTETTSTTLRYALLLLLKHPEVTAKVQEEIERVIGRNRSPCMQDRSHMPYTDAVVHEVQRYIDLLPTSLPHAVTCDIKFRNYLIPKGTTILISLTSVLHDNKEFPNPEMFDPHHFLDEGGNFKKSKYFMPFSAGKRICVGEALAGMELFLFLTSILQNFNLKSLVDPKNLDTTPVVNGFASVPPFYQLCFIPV
Voltage-gated inwardly rectifying potassium channel KCNH2, sequence (Q12809 whole entry): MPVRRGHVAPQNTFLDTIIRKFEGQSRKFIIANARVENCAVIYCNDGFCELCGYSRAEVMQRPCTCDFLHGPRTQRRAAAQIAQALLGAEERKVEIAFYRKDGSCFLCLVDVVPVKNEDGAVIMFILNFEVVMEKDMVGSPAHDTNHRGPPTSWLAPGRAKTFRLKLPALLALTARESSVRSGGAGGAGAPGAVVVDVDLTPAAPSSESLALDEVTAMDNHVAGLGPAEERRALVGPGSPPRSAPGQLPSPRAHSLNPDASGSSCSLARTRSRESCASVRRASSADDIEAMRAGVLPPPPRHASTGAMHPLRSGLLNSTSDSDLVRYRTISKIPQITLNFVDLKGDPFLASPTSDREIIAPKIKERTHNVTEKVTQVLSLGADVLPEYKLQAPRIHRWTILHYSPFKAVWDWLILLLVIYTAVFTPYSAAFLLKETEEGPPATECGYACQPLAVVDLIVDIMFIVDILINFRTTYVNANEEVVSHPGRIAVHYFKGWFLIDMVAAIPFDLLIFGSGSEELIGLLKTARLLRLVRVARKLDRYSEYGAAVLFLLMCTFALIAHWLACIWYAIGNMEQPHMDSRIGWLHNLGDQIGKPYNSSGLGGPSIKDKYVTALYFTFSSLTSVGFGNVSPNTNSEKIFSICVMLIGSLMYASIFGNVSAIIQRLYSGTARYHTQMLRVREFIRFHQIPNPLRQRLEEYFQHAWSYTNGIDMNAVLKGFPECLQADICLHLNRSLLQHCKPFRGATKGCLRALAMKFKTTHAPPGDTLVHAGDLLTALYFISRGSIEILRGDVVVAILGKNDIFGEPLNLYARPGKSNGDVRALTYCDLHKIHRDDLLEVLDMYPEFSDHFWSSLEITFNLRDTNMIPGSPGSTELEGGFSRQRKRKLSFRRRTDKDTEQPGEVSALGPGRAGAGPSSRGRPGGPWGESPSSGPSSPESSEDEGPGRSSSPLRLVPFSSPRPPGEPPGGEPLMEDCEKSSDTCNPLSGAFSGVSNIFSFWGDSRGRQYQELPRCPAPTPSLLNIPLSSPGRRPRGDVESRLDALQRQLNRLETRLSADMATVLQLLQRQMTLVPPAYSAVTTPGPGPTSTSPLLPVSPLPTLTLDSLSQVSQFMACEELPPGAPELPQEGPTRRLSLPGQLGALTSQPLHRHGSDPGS
Cytochrome P450 3A5, sequence (P20815 whole entry): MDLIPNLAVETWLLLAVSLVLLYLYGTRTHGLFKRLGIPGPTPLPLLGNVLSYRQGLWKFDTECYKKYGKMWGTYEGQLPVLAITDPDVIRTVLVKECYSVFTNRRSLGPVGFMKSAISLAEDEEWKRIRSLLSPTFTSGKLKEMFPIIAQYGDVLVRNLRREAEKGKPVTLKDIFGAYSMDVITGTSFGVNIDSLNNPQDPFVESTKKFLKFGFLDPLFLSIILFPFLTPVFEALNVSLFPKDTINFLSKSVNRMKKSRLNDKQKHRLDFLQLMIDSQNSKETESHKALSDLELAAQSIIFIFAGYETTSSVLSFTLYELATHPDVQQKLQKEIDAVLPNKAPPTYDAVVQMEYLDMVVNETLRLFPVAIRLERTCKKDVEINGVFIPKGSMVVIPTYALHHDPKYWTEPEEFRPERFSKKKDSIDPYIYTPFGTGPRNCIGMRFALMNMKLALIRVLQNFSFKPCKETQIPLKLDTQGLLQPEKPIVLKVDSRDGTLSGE

As usually defined, the solubility is the concentration that dissolves in the medium under given conditions. As for `N[C@H](CC(=O)O)Cn1nnc(-c2ccc(Oc3ccc(-c4ncco4)cc3)cc2)n1`, the solubility in data set [1] stood at 17 µM (≈ 6.91 µg/mL).
As a reminder, the half-life is the time needed for the level to fall by half in the phase considered. The term pIC50 denotes −log10 of the IC50, conventionally taken in molar units. Consider `O=C(O)CCn1nnc(-c2ccc(Oc3ccc(Cl)cc3)cc2)n1`, for which the half-life in data set [2] came out at 114 min. Moreover, the pIC50 is under 4.52 in [3], under 4.70 on Cytochrome P450 2C9, under 4.70 on Cytochrome P450 2D6 and under 4.70 on Cytochrome P450 3A5.
As to `NCCCn1nnc(-c2ccc(Oc3ccc(Cl)cc3)cc2)n1`, the half-life in [2] is 30 min. The pIC50 in data set [3] is 5.32; at Cytochrome P450 2C9, under 4.70; at Cytochrome P450 2D6 it was under 4.70; on Cytochrome P450 3A5, under 4.70.
The compound `N[C@H](CC(=O)O)Cn1nnc(-c2ccc(Oc3ccc(Cl)cn3)cc2)n1` displayed a solubility in data set [1] of 344 µM (≈ 129 µg/mL).
The term IC90 denotes the point of the concentration-response curve where the effect stands at 90%. In the case of `O=C(O)CCCN1CCC[C@H]1COc1ccc(Oc2ccc(Cl)cc2)cc1`, the 90% effect concentration (IC90) in [4] worked out at 5.05 µM; in data set [5], 1.07 µM.
Take `N[C@@H](CC(=O)O)Cn1nnc(-c2ccc(Oc3ccc(Cl)cc3)cc2)n1`: the half-life in [2] was 190 min. In data set [1], the solubility was determined as 26 µM (≈ 9.72 µg/mL).
`COc1cnc(Oc2ccc(-c3nnn(C[C@H](N)CC(=O)O)n3)cc2)nc1` had a solubility in [1] of over 1000 µM.
As for `C[C@H](CN)n1nnc(-c2ccc(Oc3ccc(Cl)cc3)cc2)n1`, the half-life in data set [2] stood at 15 min. Also, the pIC50 in [3] was under 4.52; on Cytochrome P450 2C9 it was 5.70; at Cytochrome P450 2D6, 4.96; on Cytochrome P450 3A5, under 4.70.
On to `O=C(O)CNCCn1nnc(-c2ccc(Oc3ccc(Cl)cc3)cc2)n1`, for which, in data set [2], the half-life was 142 min.
`N[C@H](CC(=O)O)Cn1nnc(-c2ccc(Oc3ccc(F)cc3)cc2)n1`: in data set [1], the solubility came to 135 µM (≈ 48.2 µg/mL).
Same read-out and setting: next, `N[C@@H](CC(=O)O)Cn1nnc(-c2ccc(Oc3nc4ccccc4s3)cc2)n1`: 35 µM (≈ 13.9 µg/mL).
Take `C[C@@H](N)Cn1nnc(-c2ccc(Oc3ccc(Cl)cc3)cc2)n1`: in data set [2], the half-life came to 33 min. For the same compound, the pIC50 in data set [3] was under 4.52; at Cytochrome P450 2C9, under 4.70; at Cytochrome P450 2D6, under 4.70; on Cytochrome P450 3A5, under 4.70.
Turning to `NCCn1nnc(-c2ccc(Oc3ccc(Cl)cc3)cc2)n1`, in [2], the half-life was 15 min.
For `CC(=O)N[C@H]1C[C@H]2CC[C@@H](C1)N2Cc1ccc(Oc2nc3ncccc3s2)cc1`, the pIC50 in [6] was 7.32; in [7] it was 7.74; in data set [8], 8.72. The results for the IC90 in [4] and in data set [5] were 0.104 µM and 0.092 µM, respectively.
Consider `N[C@@H](CC(=O)O)Cn1nnc(-c2ccc(COCc3ccccc3)cc2)n1`, for which the solubility in data set [1] came to 166 µM (≈ 61 µg/mL).
Regarding `O=C(O)c1ccc(CN2C[C@@H]3C[C@H]2CN3Cc2ccc(Oc3ccc(-c4ncco4)cc3)cc2)cc1` [ACEBILUSTAT], the figures for the pIC50 in data set [6], in data set [7] and in [8] were 6.85, 7.62 and 8.31, respectively. Moreover, the concentration at 72 h was 488 nM in [9]; 1860 nM in data set [10]; 7620 nM in [11]; 597 nM in data set [12]; 3820 nM in data set [13]; 14600 nM in data set [14]. For the same compound, the concentration at 72 h is 32 nM in data set [15]; 166 nM in [16]; 554 nM in data set [17]; 9 nM in data set [18]; 94 nM in data set [19]; 826 nM in [20]. The IC90 in [4] stood at 0.728 µM; in data set [5] it was 0.181 µM.
`CC(=O)NCCn1nnc(-c2ccc(Oc3ccc(Cl)cc3)cc2)n1`: the half-life in data set [2] was over 55 min. In addition, the pIC50 was under 4.52 in [3], under 4.70 at Cytochrome P450 2C9, under 4.70 at Cytochrome P450 2D6 and under 4.70 on Cytochrome P450 3A5.
Consider `N[C@H](CC(=O)O)Cn1nnc(-c2ccc(Oc3ncc(Cl)cc3F)cc2)n1`, for which the solubility in data set [1] was found to be 398 µM (≈ 156 µg/mL).
Same read-out and setting: next, `C[C@H](Cc1ccccc1)Oc1ccc(-c2nnn(C[C@@H](N)CC(=O)O)n2)cc1`: 391 µM (≈ 149 µg/mL).
In the case of `N[C@H](CC(=O)O)Cn1nnc(-c2ccc(Oc3ccc(Cl)cc3)cc2)n1`, the half-life in data set [2] was 240 min. Moreover, the solubility in data set [1] is 28 µM (≈ 10.5 µg/mL).
On to `N[C@H](CC(=O)O)Cn1nnc(-c2ccc(Oc3nc4ccccc4s3)cc2)n1`, for which the solubility in data set [1] is 23 µM (≈ 9.12 µg/mL).
Consider `N[C@H](CC(=O)O)Cn1nnc(-c2ccc(OCCc3ccccc3)cc2)n1`, for which the concentration in solution in data set [1] (solubility) was 23 µM (≈ 8.45 µg/mL).
As for `N[C@@H](Cn1nnc(-c2ccc(Oc3ccc(Cl)cc3)cc2)n1)C(=O)O`, the half-life in data set [2] was over 55 min.
Usually ΔTm stands for the shift of the melting midpoint relative to a reference. `OCc1ccc(Oc2ccccc2)cc1`: the pIC50 in data set [21] was 5.35. Moreover, the ΔTm in [22] is 0.08 °C; in data set [23] it was 0.2 °C; in [24] it was 0.2 °C; in [25], 0.3 °C.
In data set [1], `CCCCCOc1ccc(-c2nnn(C[C@H](N)CC(=O)O)n2)cc1` yielded a solubility of 65 µM (≈ 21.7 µg/mL). This lies in the double-digit micromolar range.
Regarding `Cc1ccc(Oc2ccc(-c3nnn(CCN)n3)cc2)cc1`, in [2], the half-life worked out at 5 min. The negative-log IC50 (pIC50) in [3] is 5.24; at Cytochrome P450 2C9, 5.85; on Cytochrome P450 2D6, 4.85; at Cytochrome P450 3A5, under 4.70.
On the same counts, the results for `O=C(O)CCCn1nnc(-c2ccc(Oc3ccc(Cl)cc3)cc2)n1` are 405 min, under 4.52, under 4.70, under 4.70 and under 4.70.
